A short description of one data set: Kinetic solubility assay. Format: physicochemical. The following applies: pH 7.4, aqueous buffer, kinetic from dmso stock; phosphate buffer pH7.4, 1% DMSO, 1 hour at room temperature. On the procedure:
This protocol is designed to measure kinetic solubility of test articles in assay buffer. The study will be conducted in accordance with International Bioethical Standards “World Medical Association Declaration of Helsinki.
100 Phosphate Buffer, pH7.4
• 1) Prepare stock solutions for test compounds in DMSO at 10 mM concentration. Dilute the stock solutions into 100 mM phosphate buffer in triplicate in 1.5 ml Eppendorf tubes to a target concentration of 100 µM with a final DMSO concentration of 1%: • 2) 4 µL of 10 mM DMSO stock solution into 396 µL of assay buffer. • 3) Keep the sample tubes shaken (1000 rpm) for 1 hour at room temperature. • 4) Centrifuge sample tubes for 10 min at 12000 rpm (Eppendrof-5424, about 13500 g) to precipitate un-dissolved particles. • 5) Transfer the supernatants to new tubes with different dilutions (undiluted, 10-fold diluted, 100-fold diluted, or other fold diluted). • 6) Add 5 µL of working solution and diluted supernatants to 95 µL ACN (containing IS). Analyze the samples by LC-MS-MS against calibration curve.
A standard calibration curve is prepared in Methanol/H2O (1:1).

The next data set is described as follows: MDCK permeability assay. It is filed as in vitro ADME. The following applies: dog, MDCK, pH 7.4. On the procedure: (§1) This assay is for generating screening data only, and to estimate the intestinal absorption potential of drug candidates. The study will be conducted in accordance with International Bioethical Standards “World MedicalAssociation Declaration of Helsinki.
(§2) Cell line: • ▪ MDCK (ATCC), or MDCK MDR1 (NKI).
(§3) Prepare donor buffer: • For A-to-B direction: • ✔ HBSS buffer with 0.3% DMSO and 5 µM Lucifer Yellow (LY): add 150 µL DMSO and 125 µL LY (2 mM) into 50 mL HBSS buffer (pH 7.4). • ✔ HBSS buffer with 0.1% DMSO and 5 µM Lucifer Yellow (LY): add 50 µL DMSO and 125 µL LY (2 mM) into 50 mL HBSS buffer (pH 7.4). • ✔ HBSS buffer with 5 µM Lucifer Yellow (LY): add 125 µL LY (2 mM) into 50 mL HBSS buffer (pH 7.4). • For B-to-A direction: • ✔ HBSS buffer with 0.3% DMSO: add 150 µL DMSO into 50 mL HBSS buffer (pH 7.4). • ✔ HBSS buffer with 0.1% DMSO: add 50 µL DMSO into 50 mL HBSS buffer (pH 7.4). • ✔ HBSS buffer without DMSO. • Prepare receiver buffer: • For A-to-B direction: Prepare HBSS buffer with 0.4% DMSO: add 200 µL DMSO into 50 mL HBSS buffer (pH 7.4) • For B-to-A direction: Prepare HBSS buffer with 0.4% DMSO and 5 µM LY: add 200 uL DMSO and 125 µL LY (2 mM) into 50 mL HBSS buffer (pH 7.4) • Controls: • Prepare 10 mM stock concentrations of compound in DMSO and Lucifer Yellow in assay buffer using the following formula: • (Actual Weight/Molecular Weight)/mL solvent =10 mM • Reference compound: Erythromycin, Metoprolol, Atenolol
(§4) MDCK assay plates are seeded 3-4 days prior to running the assay. 24-well plates are seeded at a cell density of 0.88 × 10^5/well in a 400 µL apical chamber volume (2.2×10^5 /mL) with a 25 mL volume of growth medium to the 24-well basal chamber. Assay plates are generally provided with a growth medium change 24 hours prior to the assay.
(§5) MDCK assay plates are rinsed with HBSS+ buffer prior to running the assay. After rinsing, fresh HBSS+ is added to the assay plate in a 400 µL apical chamber volume and a 0.8 mL HBSS+ basal chamber volume. Measure the electrical resistance across the monolayer using the Millicell ERS system ohm meter. (The cells will be used if TEER is higher than 100 ohm*cm^2).
(§6) Preparation of the cell plates: • Remove the buffer from the apical side and basolateral side. Add 600 µL of donor solution (for A-to-B) or 500 µL of receiver solution (for B-to-A) to the apical wells based on plate map. • A fresh basolateral plate is prepared by adding 800 µL of receiver solution (for A-to-B) or 900 µL of donor solution (B-to-A) to the well of a new 24-well plate. • Put the apical plate and basolateral plate into 37° C. incubator.
(§7) Preparation of analytical plate: • After 5 min, transfer 100 µL of samples from all donors (for both A-to-B and B-to-A) into appropriate wells of a sample plate for D0. And transfer 100 µL of samples from all apical chambers (the donor of A-to-B and receiver of B-to-A) into appropriate wells of a microplate for Lucifer Yellow D0 (D0 LY) • Lay the apical plate to the basolateral plate to start transport process. • At 90 min, separate the apical and basolateral plates and transfer 100 µL of samples from all donors (for both A-to-B and B-to-A) into appropriate wells of a new sample plate for D90, and transfer 200 µL of samples from all receivers into appropriate wells of a sample plate for R90. Transfer 100 µL of samples from all basolateral chambers (receiver of A-to-B and donor of B-to-A) into appropriate wells of a new microplate for Lucifer Yellow R90 (R90 LY). • Determine LY permeability by reading D0 LY and R90 LY at an excitation wavelength of 485 nm and an emission wavelength of 535 nm using a fluorescent plate reader. • Sample preparation: • For receiver solution: 60 µL of sample + 60 µL ACN with IS (200 ng/mL Osalmid) • For donor solution: 6 µL of sample + 54 µL 0.4% DMSO/HBSS + 60 µL ACN with IS (200 ng/mL Osalmid) […]

For the next data set, the system named is MDCK. The experiment in a line: MDCK permeability assay. It is filed as in vitro ADME. The following applies: pH 7.4. On the procedure:
as §1, §2, §3, §4, §5, §6, §7

Values after ≈ are worked out from the molar mass of the structure shown.

The compound `COc1cc2c(cc1Nc1ncc(Cl)c(N3CC(C)(CC(=O)O)c4ccc(F)cc43)n1)CN(C)CC2` (centres unmarked) [Compound 10, reference compound] had a solubility (kinetic) at 1 h in the data set “Kinetic solubility assay” of 56.2 µM (≈ 28.8 µg/mL). In “MDCK permeability assay”, this compound returned a Papp A→B at 90 min of 2.6 ×10⁻⁶ cm/s and a Papp B→A at 90 min of 58.9 ×10⁻⁶ cm/s.
In the case of `COc1cc2c(cc1Nc1ncc(Cl)c(N3CC(C(=O)O)c4ccccc43)n1)CN(C)CC2` (centres unmarked) [Compound 7, reference compound], the solubility (kinetic) at 1 h in the data set “Kinetic solubility assay” amounted to 7.71 µM (≈ 3.59 µg/mL). For the same compound, in the data set “MDCK permeability assay”, the Papp A→B at 90 min was determined as 3.2 ×10⁻⁶ cm/s and the Papp B→A at 90 min is 9.4 ×10⁻⁶ cm/s.
Consider `CN1CCc2cc(F)c(Nc3ncc(Cl)c(N4CC(C)(CC(=O)O)c5ccccc54)n3)cc2C1` (centres unmarked) [Example 4, 2-(1-(5-chloro-2-((6-fluoro-2-methyl-1,2,3,4-tetrahydroisoquinolin-7-yl)amino)pyrimidin-4-yl)-3-methylindolin-3-yl)acetic acid], for which, in the data set “Kinetic solubility assay”, the solubility (kinetic) at 1 h worked out at 46.7 µM (≈ 22.5 µg/mL). In the data set “MDCK permeability assay”, this compound gave a Papp A→B at 90 min of 7.7 ×10⁻⁶ cm/s and a basolateral-to-apical permeability (Papp B→A) at 90 min of 41.1 ×10⁻⁶ cm/s.
In the same order, the values of `COc1cc2c(cc1Nc1ncc(Cl)c(N3CC(C)(CC(=O)O)c4ccccc43)n1)CN(C)CC2` (centres unmarked) [Example 1, 2-(1-(5-chloro-2-((6-methoxy-2-methyl-1,2,3,4-tetrahydroisoquinolin-7-yl)amino)pyrimidin-4-yl)-3-methylindolin-3-yl)acetic acid] are 1.5 µM (≈ 0.741 µg/mL), 2.2 ×10⁻⁶ cm/s and 47.8 ×10⁻⁶ cm/s.
Take `COc1cc2c(cc1Nc1ncc(Cl)c(N3CC(CC(=O)O)c4ccccc43)n1)CN(C)CC2` (centres unmarked) [Compound 8, reference compound]: in the data set “Kinetic solubility assay”, the solubility (kinetic) at 1 h turned out to be 62.1 µM (≈ 29.8 µg/mL). In “MDCK permeability assay”, this compound showed a Papp A→B at 90 min of 4.5 ×10⁻⁶ cm/s and a Papp B→A at 90 min of 38.5 ×10⁻⁶ cm/s.
Regarding `CN1CCc2cc(F)c(Nc3ncc(Cl)c(N4C[C@](C)(CC(=O)O)c5ccccc54)n3)cc2C1` (single isomer, unassigned) [Example 5, (R)-2-[1-[5-chloro-2-[(6-fluoro-2-methyl-3,4-dihydro-1H-isoquinolin-7-yl)amino]pyrimidin-4-yl]-3-methyl-indolin-3-yl]acetic acid or (S)-2-[1-[5-chloro-2-[(6-fluoro-2-methyl-3,4-dihydro-1H-isoquinolin-7-yl)amino]pyrimidin-4-yl]-3-methyl-indolin-3-yl]acetic acid], the “MDCK Permeability (A-B) (×10-6 cm/s)” value in the data set on MDCK (A-B) was 11.9 ×10-6 cm/s. Further, the “MDCK Permeability (B-A) (×10-6 cm/s)” value in the data set with MDCK (B-A) was 52.3 ×10-6 cm/s.
